Data as given in US20090280130A1 (priority 2006, published 2009).
Where “and” joins values, the source holds several entries; their conditions need not be identical. Equal values may be shown once. Entries after “also recorded” stand apart in the source; their conditions may differ.

Assays:
zebrafish embryos [1] = assay type: in vivo; settings: n>30
zebrafish embryos [2] = settings: in vivo
VEGFR2 [3] = biological target: VEGFR2 (Mus musculus, UniProt P35918); settings: cited from earlier work
zebrafish embryos [4] = settings: in vivo; remark: listed apart in the source
[5] = tested on: mouse skin microvasculature; design: species or system C3H/HeJ mice; settings: in vivo
zebrafish embryos [6] = assay type: in vivo; settings: 5 μM for 6 hours
VEGFR1 = VEGFR1 (Homo sapiens, UniProt P17948); settings: cited from earlier work
zebrafish embryos [7] = settings: in vivo; remark: listed apart in the source
VEGFR2 [8] = biological target: T1, VEGFR2 (Homo sapiens, UniProt P35968); settings: cited from earlier work
VEGFR2 [9] = biological target: T1, VEGFR2; settings: cited from earlier work; remark: listed apart in the source

T1 sequence (P35968 20-1356): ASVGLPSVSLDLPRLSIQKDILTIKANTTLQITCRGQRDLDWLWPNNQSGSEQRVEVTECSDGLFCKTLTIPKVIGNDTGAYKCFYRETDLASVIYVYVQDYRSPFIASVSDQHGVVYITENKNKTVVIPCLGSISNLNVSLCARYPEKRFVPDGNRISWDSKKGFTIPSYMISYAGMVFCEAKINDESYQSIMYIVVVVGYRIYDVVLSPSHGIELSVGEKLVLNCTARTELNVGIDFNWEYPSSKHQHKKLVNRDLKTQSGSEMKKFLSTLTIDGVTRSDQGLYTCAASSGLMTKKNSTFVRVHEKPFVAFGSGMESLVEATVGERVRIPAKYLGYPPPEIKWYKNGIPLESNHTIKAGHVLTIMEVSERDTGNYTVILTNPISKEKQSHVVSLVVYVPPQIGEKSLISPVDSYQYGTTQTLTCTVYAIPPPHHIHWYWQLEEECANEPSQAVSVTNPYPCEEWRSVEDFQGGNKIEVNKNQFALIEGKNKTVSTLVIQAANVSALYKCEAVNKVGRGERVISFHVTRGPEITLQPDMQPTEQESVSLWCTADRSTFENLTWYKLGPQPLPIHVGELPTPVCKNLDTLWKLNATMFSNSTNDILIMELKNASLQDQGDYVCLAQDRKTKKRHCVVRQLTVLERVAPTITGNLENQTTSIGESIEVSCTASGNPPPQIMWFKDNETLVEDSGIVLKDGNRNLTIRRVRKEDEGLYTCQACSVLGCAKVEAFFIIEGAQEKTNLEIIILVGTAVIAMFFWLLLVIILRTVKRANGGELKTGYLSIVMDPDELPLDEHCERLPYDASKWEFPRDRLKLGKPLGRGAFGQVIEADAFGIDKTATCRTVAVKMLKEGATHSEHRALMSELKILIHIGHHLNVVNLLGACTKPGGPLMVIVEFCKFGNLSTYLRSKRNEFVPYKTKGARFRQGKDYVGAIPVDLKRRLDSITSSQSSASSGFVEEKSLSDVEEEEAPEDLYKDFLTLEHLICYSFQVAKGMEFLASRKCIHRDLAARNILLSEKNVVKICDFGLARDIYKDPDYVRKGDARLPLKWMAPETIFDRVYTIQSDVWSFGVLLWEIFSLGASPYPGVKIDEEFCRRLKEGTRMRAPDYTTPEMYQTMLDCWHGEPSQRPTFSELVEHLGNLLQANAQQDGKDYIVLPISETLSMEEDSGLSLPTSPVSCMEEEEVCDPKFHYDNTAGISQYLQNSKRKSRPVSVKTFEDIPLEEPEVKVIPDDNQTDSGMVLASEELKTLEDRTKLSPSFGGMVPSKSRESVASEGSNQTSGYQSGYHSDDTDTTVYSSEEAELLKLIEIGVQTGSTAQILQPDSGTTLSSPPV
Chain of VEGFR2 (Mus musculus, UniProt P35918) (P35918 20-1345): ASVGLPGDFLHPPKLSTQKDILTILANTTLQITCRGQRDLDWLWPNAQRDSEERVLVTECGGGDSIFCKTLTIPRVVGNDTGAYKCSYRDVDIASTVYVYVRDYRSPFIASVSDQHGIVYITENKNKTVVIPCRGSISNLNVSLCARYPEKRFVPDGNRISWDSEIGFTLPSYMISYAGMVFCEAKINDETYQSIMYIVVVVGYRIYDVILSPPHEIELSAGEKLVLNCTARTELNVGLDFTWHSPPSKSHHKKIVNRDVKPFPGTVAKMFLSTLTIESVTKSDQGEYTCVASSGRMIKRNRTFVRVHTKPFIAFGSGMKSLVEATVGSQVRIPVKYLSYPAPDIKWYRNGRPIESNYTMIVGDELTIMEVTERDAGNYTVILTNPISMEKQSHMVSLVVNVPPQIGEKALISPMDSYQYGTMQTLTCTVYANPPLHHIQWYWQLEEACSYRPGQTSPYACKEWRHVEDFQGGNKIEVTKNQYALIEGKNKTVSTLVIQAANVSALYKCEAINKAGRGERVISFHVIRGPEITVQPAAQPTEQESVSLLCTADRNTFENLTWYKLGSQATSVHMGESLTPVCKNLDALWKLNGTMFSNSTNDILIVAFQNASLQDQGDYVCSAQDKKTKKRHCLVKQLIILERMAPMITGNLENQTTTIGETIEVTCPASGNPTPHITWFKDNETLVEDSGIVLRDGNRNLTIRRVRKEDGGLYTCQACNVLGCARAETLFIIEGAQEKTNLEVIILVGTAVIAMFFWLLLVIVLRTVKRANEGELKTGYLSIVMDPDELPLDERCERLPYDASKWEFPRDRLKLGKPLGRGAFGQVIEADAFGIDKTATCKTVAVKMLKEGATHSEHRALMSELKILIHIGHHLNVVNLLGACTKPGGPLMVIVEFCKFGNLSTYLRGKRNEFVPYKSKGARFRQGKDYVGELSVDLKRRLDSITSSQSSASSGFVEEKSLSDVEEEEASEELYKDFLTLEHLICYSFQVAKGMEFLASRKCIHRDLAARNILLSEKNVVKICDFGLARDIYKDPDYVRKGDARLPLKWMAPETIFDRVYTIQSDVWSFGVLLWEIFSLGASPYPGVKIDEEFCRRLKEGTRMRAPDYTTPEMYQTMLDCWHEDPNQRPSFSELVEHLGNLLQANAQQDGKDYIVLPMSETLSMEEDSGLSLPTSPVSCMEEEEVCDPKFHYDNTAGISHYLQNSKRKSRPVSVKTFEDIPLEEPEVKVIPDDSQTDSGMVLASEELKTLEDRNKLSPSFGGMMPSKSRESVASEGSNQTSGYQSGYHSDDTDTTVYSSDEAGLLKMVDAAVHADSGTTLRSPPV
Chain of VEGFR1 (P17948 27-1338): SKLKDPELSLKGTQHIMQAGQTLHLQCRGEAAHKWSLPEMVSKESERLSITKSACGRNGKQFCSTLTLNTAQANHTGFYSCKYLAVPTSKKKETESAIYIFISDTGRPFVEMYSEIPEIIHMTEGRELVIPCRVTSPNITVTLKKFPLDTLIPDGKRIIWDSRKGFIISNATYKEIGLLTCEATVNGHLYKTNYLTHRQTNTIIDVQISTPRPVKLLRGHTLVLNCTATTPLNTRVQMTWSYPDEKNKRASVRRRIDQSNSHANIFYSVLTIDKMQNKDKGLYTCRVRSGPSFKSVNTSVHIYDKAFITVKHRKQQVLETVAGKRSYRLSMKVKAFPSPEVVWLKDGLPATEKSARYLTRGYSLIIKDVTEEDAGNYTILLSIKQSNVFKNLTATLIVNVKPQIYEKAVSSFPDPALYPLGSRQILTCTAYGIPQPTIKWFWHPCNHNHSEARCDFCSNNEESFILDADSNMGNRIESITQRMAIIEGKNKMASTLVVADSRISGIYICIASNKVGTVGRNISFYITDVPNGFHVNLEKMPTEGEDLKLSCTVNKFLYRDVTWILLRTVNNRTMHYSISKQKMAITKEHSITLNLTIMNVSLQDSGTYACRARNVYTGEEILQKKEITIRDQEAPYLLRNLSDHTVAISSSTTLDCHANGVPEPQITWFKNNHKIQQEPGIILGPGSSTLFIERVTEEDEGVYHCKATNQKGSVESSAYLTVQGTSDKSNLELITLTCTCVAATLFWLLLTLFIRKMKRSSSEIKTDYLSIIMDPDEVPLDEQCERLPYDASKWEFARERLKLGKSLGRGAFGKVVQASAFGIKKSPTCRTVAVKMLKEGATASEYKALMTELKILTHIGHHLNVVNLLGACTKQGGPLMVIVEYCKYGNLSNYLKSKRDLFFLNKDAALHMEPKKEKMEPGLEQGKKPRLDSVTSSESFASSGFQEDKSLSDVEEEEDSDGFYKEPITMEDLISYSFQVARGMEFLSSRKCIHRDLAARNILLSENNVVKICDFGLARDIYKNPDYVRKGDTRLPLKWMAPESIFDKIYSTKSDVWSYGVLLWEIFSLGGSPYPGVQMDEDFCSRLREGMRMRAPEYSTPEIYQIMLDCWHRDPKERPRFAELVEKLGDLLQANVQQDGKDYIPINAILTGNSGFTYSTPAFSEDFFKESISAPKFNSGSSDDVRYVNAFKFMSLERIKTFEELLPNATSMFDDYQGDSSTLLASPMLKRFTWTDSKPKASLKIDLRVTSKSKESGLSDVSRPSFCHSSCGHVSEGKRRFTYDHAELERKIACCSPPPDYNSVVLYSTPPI

O=C(NOCC1CC1)c1ccc(F)c(F)c1Nc1ccc(I)cc1Cl [CI-1040]
embryos in which LeTx effects were phenocopied (zebrafish embryos [1]): 100%

CCN(CC)CCNC(=O)c1c(C)[nH]c(/C=C2\C(=O)Nc3ccc(Cl)cc32)c1C [SU11652]
% With Toxin Phen (Mild and Severe) (zebrafish embryos [2]): 80% and 100%
Mild Phen (zebrafish embryos [2]): 7 and 9 and 8
Protection against LeTx effects (in words) (zebrafish embryos [2]): able to protect against LeTx effects
Severe Toxin Phen (zebrafish embryos [2]): 9 and 11 and 12
Blocking of VEGFR2 activity in vivo (in words) (VEGFR2 [3]): used successfully to block VEGFR2 activity
Mild Toxin Phenotype (zebrafish embryos [4]): 11
Protection against LeTx effects / phenotypes (in words) (zebrafish embryos [4]): demonstrated protection against LeTx effects
Severe Toxin Phenotype (zebrafish embryos [4]): 10
Wildtype Appearance (zebrafish embryos [4]): 1
LeTx induced vascular leakage, Evans Blue Dye (in words) [5]: attenuated LeTx induced vascular leakage significantly

Cn1cc(C=C2C(=O)Nc3ccc(S(N)(=O)=O)cc32)c2ccccc21 [Syk Inhibitor, 3-(1-Methyl-1H-indol-3-yl-methylene)-2-oxo-2,3-dihydro-1H-indol-5-sulfonamide]
Mild Toxin Phenotype (zebrafish embryos [4]): 7
Severe Toxin Phenotype (zebrafish embryos [4]): 14
Wildtype Appearance (zebrafish embryos [4]): 1

C[C@@H](N)[C@H]1CC[C@H](C(=O)Nc2ccncc2)CC1 [Y-27632]
Mild Toxin Phenotype (zebrafish embryos [4]): 6
Severe Toxin Phenotype (zebrafish embryos [4]): 13
Wildtype Appearance (zebrafish embryos [4]): 1

C[C@@H]1C[C@@H]([C@H](O)CC2CC(=O)NC(=O)C2)C(=O)[C@@H](C)C1 [cycloheximide]
Phenocopy of endothelial cell fragmentation in the intersegmental vessels (in words) (zebrafish embryos [6]): phenocopied

AG-1296
Mild Toxin Phenotype (zebrafish embryos [4]): 3
Severe Toxin Phenotype (zebrafish embryos [4]): 15
Wildtype Appearance (zebrafish embryos [4]): 2

ZM323881
Attenuation of toxin effects (in words) (zebrafish embryos [2]): able to attenuate the toxin effects
IC50 (VEGFR1): > 50 µM
Mild Toxin Phen (zebrafish embryos [7]): 12 and 8 and 9 and 13
Proportion of embryos displaying LeTx phenotypes (in words) (zebrafish embryos [7]): reduction in the proportion of embryos displaying LeTx phenotypes is seen in 3 concentrations of the inhibitor
Severe forms of the LeTx phenotype (in words) (zebrafish embryos [7]): dramatic reduction in the severe forms of the LeTx phenotype that occurred in all concentrations used
Mild Toxin Phenotype (zebrafish embryos [4]): 10
Protection against LeTx effects / phenotypes (in words) (zebrafish embryos [4]): provided the best protection against the development of LeTx phenotypes; also recorded: demonstrated protection against LeTx effects
Severe Toxin Phenotype (zebrafish embryos [4]): 8
Wildtype Appearance (zebrafish embryos [4]): 4
VEGFR2 activation (in words) (VEGFR2 [8]): inhibit VEGFR2 activation
LeTx induced vascular leakage, Evans Blue Dye (in words) [5]: attenuated LeTx induced vascular leakage significantly
IC50 (VEGFR2 [9]): < 2 nM

ZM449829
Mild Toxin Phenotype (zebrafish embryos [4]): 5
Severe Toxin Phenotype (zebrafish embryos [4]): 15
Wildtype Appearance (zebrafish embryos [4]): 1
